Experimental data from ChEMBL document CHEMBL1201861, “Genomics of Drug Sensitity in Cancer screening data, Wellcome Trust Sanger Institute”.

What was measured:
MOLT-4 = experiment: cells; type: functional, cell-based; conditions: Homo sapiens;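 note: growth inhibition of MOLT-4 cells, determined with a cell viability readout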
Description: SANGER: Inhibition of human MOLT-4 cell growth in a cell viability assay.

NB69 = experiment: cells; type: functional, cell-based; conditions: Homo sapiens;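 note: growth inhibition of NB69 cells, determined by a cell viability assay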
Description: SANGER: Inhibition of human NB69 cell growth in a cell viability assay.

LS-123 = experiment: cells; type: functional, cell-based; conditions: Homo sapiens
Description: SANGER: Inhibition of human LS-123 cell growth in a cell viability assay.

GT3TKB = experiment: cells; type: functional, cell-based; conditions: Homo sapiens;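 note: growth inhibition of the cell line, read out with a cell viability assay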
Description: SANGER: Inhibition of human GT3TKB cell growth in a cell viability assay.

KM12 = experiment: cells; type: functional, cell-based; conditions: Homo sapiens;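 note: KM12 cell growth inhibition, read out with a cell viability assay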
Description: SANGER: Inhibition of human KM12 cell growth in a cell viability assay.

GI-ME-N = experiment: cells; type: functional, cell-based; conditions: Homo sapiens;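 note: growth inhibition of human GI-ME-N cells, read out with a cell viability assay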
Description: SANGER: Inhibition of human GI-ME-N cell growth in a cell viability assay.

COLO-829 = experiment: cells; type: functional, cell-based; conditions: Homo sapiens
Description: SANGER: Inhibition of human COLO-829 cell growth in a cell viability assay.

Becker = experiment: cells; type: functional, cell-based; conditions: Homo sapiens;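 note: growth inhibition of Becker cells, read out with a cell viability assay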
Description: SANGER: Inhibition of human Becker cell growth in a cell viability assay.

BB65-RCC = experiment: cells; type: functional, cell-based; conditions: Homo sapiens;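 note: growth inhibition of the cell line, measured with a cell viability assay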
Description: SANGER: Inhibition of human BB65-RCC cell growth in a cell viability assay.

MZ2-MEL = experiment: cells; type: functional, cell-based; conditions: Homo sapiens;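 note: growth inhibition of MZ2-MEL cells read out with a cell viability assay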
Description: SANGER: Inhibition of human MZ2-MEL cell growth in a cell viability assay.

NKM-1 = experiment: cells; type: functional, cell-based; conditions: Homo sapiens;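 note: growth inhibition of NKM-1 cells, read out with a cell viability assay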
Description: SANGER: Inhibition of human NKM-1 cell growth in a cell viability assay.

A4-Fuk = experiment: cells; type: functional, cell-based; conditions: Homo sapiens;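 note: growth inhibition of A4-Fuk cells, read out by a cell viability assay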
Description: SANGER: Inhibition of human A4-Fuk cell growth in a cell viability assay.

NCI-H526 = experiment: cells; type: functional, cell-based; conditions: Homo sapiens;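 note: growth inhibition of the human NCI-H526 cell line, measured by a cell viability assay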
Description: SANGER: Inhibition of human NCI-H526 cell growth in a cell viability assay.

LB2241-RCC = experiment: cells; type: functional, cell-based; conditions: Homo sapiens;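 note: cell viability assay measuring how strongly the cultured human renal carcinoma line is prevented from growing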
Description: SANGER: Inhibition of human LB2241-RCC cell growth in a cell viability assay.

NCI-H1581 = experiment: cells; type: functional, cell-based; conditions: Homo sapiens;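 note: cell growth inhibition read out by a viability assay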
Description: SANGER: Inhibition of human NCI-H1581 cell growth in a cell viability assay.

TGBC24TKB = experiment: cells; type: functional, cell-based; conditions: Homo sapiens;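 note: growth inhibition of human TGBC24TKB cells, read out with a cell viability assay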
Description: SANGER: Inhibition of human TGBC24TKB cell growth in a cell viability assay.

SW982 = experiment: cells; type: functional, cell-based; conditions: Homo sapiens;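 note: growth inhibition of SW982 cells, read out with a cell viability assay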
Description: SANGER: Inhibition of human SW982 cell growth in a cell viability assay.

SK-LMS-1 = experiment: cells; type: functional, cell-based; conditions: Homo sapiens;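 note: growth inhibition of human SK-LMS-1 cells, read out with a cell viability assay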
Description: SANGER: Inhibition of human SK-LMS-1 cell growth in a cell viability assay.

U-266 = experiment: cells; type: functional, cell-based; conditions: Homo sapiens
Description: SANGER: Inhibition of human U-266 cell growth in a cell viability assay.

JAR = experiment: cells; type: functional, cell-based; conditions: Homo sapiens;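 note: growth inhibition of human JAR cells determined with a cell viability assay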
Description: SANGER: Inhibition of human JAR cell growth in a cell viability assay.

IM-9 = experiment: SANGER: Inhibition of human IM-9 cell growth in a cell viability assay.; type: functional, cell-based
BV-173 = experiment: cells; type: functional, cell-based; conditions: Homo sapiens
Description: SANGER: Inhibition of human BV-173 cell growth in a cell viability assay.

RS4-11 = experiment: cells; type: functional, cell-based; conditions: Homo sapiens;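 note: growth inhibition of RS4-11 cells, read out by a cell viability assay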
Description: SANGER: Inhibition of human RS4-11 cell growth in a cell viability assay.

MEG-01 = experiment: cells; type: functional, cell-based; conditions: Homo sapiens;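 note: growth inhibition of MEG-01 cells, read out by a cell viability assay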
Description: SANGER: Inhibition of human MEG-01 cell growth in a cell viability assay.

NCI-H1395 = experiment: cells; type: functional, cell-based; conditions: Homo sapiens;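 note: cell viability assay read-out quantifying reduced proliferation of human NCI-H1395 cells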
Description: SANGER: Inhibition of human NCI-H1395 cell growth in a cell viability assay.

ES4 = experiment: cells; type: functional, cell-based; conditions: Homo sapiens;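 note: growth inhibition of human ES4 cells, read out by a cell viability assay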
Description: SANGER: Inhibition of human ES4 cell growth in a cell viability assay.

MOLT-16 = experiment: cells; type: functional, cell-based; conditions: Homo sapiens;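 note: growth inhibition of human MOLT-16 cells, read out with a cell viability assay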
Description: SANGER: Inhibition of human MOLT-16 cell growth in a cell viability assay.

GB-1 = experiment: cells; type: functional, cell-based; conditions: Homo sapiens;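 note: growth of GB-1 cells judged by a viability assay, IC50 marks the concentration inhibiting growth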
Description: SANGER: Inhibition of human GB-1 cell growth in a cell viability assay.

LU-165 = experiment: cells; type: functional, cell-based; conditions: Homo sapiens
Description: SANGER: Inhibition of human LU-165 cell growth in a cell viability assay.

LB831-BLC = experiment: cells; type: functional, cell-based; conditions: Homo sapiens;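 note: growth inhibition of LB831-BLC cells, read out with a cell viability assay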
Description: SANGER: Inhibition of human LB831-BLC cell growth in a cell viability assay.

HH = experiment: cells; type: functional, cell-based; conditions: Homo sapiens
Description: SANGER: Inhibition of human HH cell growth in a cell viability assay.

KY821 = experiment: cells; type: functional, cell-based; conditions: Homo sapiens;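 note: growth inhibition of human KY821 cells, read out by a cell viability assay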
Description: SANGER: Inhibition of human KY821 cell growth in a cell viability assay.

NB13 = experiment: cells; type: functional, cell-based; conditions: Homo sapiens;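 note: cell viability readout measuring growth inhibition of human NB13 cells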
Description: SANGER: Inhibition of human NB13 cell growth in a cell viability assay.

P30-OHK = experiment: cells; type: functional, cell-based; conditions: Homo sapiens;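 note: growth inhibition of the P30-OHK cell line, read out with a cell viability assay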
Description: SANGER: Inhibition of human P30-OHK cell growth in a cell viability assay.

L-363 = experiment: cells; type: functional, cell-based; conditions: Homo sapiens
Description: SANGER: Inhibition of human L-363 cell growth in a cell viability assay.

IST-SL1 = experiment: cells; type: functional, cell-based; conditions: Homo sapiens;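 note: growth inhibition of human IST-SL1 cells, read out with a cell viability assay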
Description: SANGER: Inhibition of human IST-SL1 cell growth in a cell viability assay.

DJM-1 = experiment: cells; type: functional, cell-based; conditions: Homo sapiens;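 note: growth inhibition of human DJM-1 cells, read out by a cell viability assay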
Description: SANGER: Inhibition of human DJM-1 cell growth in a cell viability assay.

RXF 393 = experiment: cells; type: functional, cell-based; conditions: Homo sapiens;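 note: growth inhibition of human RXF 393 cells, read out with a cell viability assay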
Description: SANGER: Inhibition of human RXF393 cell growth in a cell viability assay.

ALL-PO = experiment: cells; type: functional, cell-based; conditions: Homo sapiens;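 note: growth inhibition of ALL-PO cells, read out by a cell viability assay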
Description: SANGER: Inhibition of human ALL-PO cell growth in a cell viability assay.

CW-2 = experiment: cells; type: functional, cell-based; conditions: Homo sapiens;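 note: growth inhibition of CW-2 cells, read out by a cell viability assay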
Description: SANGER: Inhibition of human CW-2 cell growth in a cell viability assay.

MV4-11 = experiment: cells; type: functional, cell-based, MV-4-11; conditions: Homo sapiens;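 note: cell viability readout measuring growth inhibition of human MV-4-11 cells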
Description: SANGER: Inhibition of human MV-4-11 cell growth in a cell viability assay.

ACN = experiment: cells; type: functional, cell-based; conditions: Homo sapiens;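 note: growth inhibition of the human ACN cell line, read out via cell viability testing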
Description: SANGER: Inhibition of human ACN cell growth in a cell viability assay.

EW-18 = experiment: cells; type: functional, cell-based; conditions: Homo sapiens;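 note: growth inhibition of EW-18 cells, read out by a cell viability assay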
Description: SANGER: Inhibition of human EW-18 cell growth in a cell viability assay.

NCI-H720 = experiment: cells; type: functional, cell-based; conditions: Homo sapiens;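 note: growth inhibition of human NCI-H720 cells determined by a cell viability assay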
Description: SANGER: Inhibition of human NCI-H720 cell growth in a cell viability assay.

MFH-ino = experiment: cells; type: functional, cell-based; conditions: Homo sapiens;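 note: growth inhibition of human MFH-ino cells, read out by a cell viability assay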
Description: SANGER: Inhibition of human MFH-ino cell growth in a cell viability assay.

HL-60 = experiment: cells; type: functional, cell-based; conditions: Homo sapiens;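 note: growth inhibition of human HL-60 cells, read out with a cell viability assay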
Description: SANGER: Inhibition of human HL-60 cell growth in a cell viability assay.

EM-2 = experiment: cells; type: functional, cell-based; conditions: Homo sapiens;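 note: growth inhibition of EM-2 cells, read out with a cell viability assay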
Description: SANGER: Inhibition of human EM-2 cell growth in a cell viability assay.

LU-134-A = experiment: cells; type: functional, cell-based; conditions: Homo sapiens
Description: SANGER: Inhibition of human LU-134-A cell growth in a cell viability assay.

DEL = experiment: cells; type: functional, cell-based; conditions: Homo sapiens;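 note: growth inhibition of the human DEL cell line, read out with a cell viability assay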
Description: SANGER: Inhibition of human DEL cell growth in a cell viability assay.

NCI-H2126 = experiment: cells; type: functional, cell-based; conditions: Homo sapiens;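 note: growth inhibition of the cancer cell line, determined with a cell viability readout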
Description: SANGER: Inhibition of human NCI-H2126 cell growth in a cell viability assay.

VA-ES-BJ = experiment: cells; type: functional, cell-based; conditions: Homo sapiens;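 note: growth inhibition of the VA-ES-BJ cell line, read out by a cell viability assay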
Description: SANGER: Inhibition of human VA-ES-BJ cell growth in a cell viability assay.

BB49-HNC = experiment: cells; type: functional, cell-based; conditions: Homo sapiens;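 note: cell viability assay read-out, reported as inhibition of BB49-HNC cell growth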
Description: SANGER: Inhibition of human BB49-HNC cell growth in a cell viability assay.

COLO-320-HSR = experiment: cells; type: functional, cell-based; conditions: Homo sapiens;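 note: growth inhibition of COLO-320-HSR cells, determined with a cell viability assay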
Description: SANGER: Inhibition of human COLO-320-HSR cell growth in a cell viability assay.

LS-411N = experiment: cells; type: functional, cell-based; conditions: Homo sapiens
CP66-MEL = experiment: cells; type: functional, cell-based; conditions: Homo sapiens;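 note: growth inhibition of CP66-MEL cells determined in a cell viability assay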
Description: SANGER: Inhibition of human CP66-MEL cell growth in a cell viability assay.

NCI-H1299 = experiment: cells; type: functional, cell-based; conditions: Homo sapiens;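 note: growth inhibition of human NCI-H1299 cells, read out by a cell viability assay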
Description: SANGER: Inhibition of human NCI-H1299 cell growth in a cell viability assay.

Compound `COc1cc(C)c(Sc2cnc(NC(=O)c3ccc(CNC(C)C(C)(C)C)cc3)s2)cc1C(=O)N1CCN(C(C)=O)CC1` (centres undefined) has an IC50 (MOLT-4) of over 10.2 µM, an IC50 (NB69) of 6.66 µM and an IC50 (LS-123) of over 10.2 µM. The IC50 (GT3TKB) was over 10.2 µM, the IC50 (KM12) was 2.84 µM and the IC50 (GI-ME-N) was 4.3 µM. It also gave an IC50 (COLO-829) of over 10.2 µM, an IC50 (Becker) of over 10.2 µM and an IC50 (BB65-RCC) of over 10.2 µM. For the same compound, the IC50 (MZ2-MEL) was 6.62 µM, the IC50 (NKM-1) was 10.1 µM and the IC50 (A4-Fuk) was 1.62 µM. For the same compound, the IC50 (NCI-H526) was over 10.2 µM, the IC50 (LB2241-RCC) was over 10.2 µM and the IC50 (NCI-H1581) was over 10.2 µM. It also gave an IC50 (TGBC24TKB) of over 10.2 µM, an IC50 (SW982) of 2.91 µM and an IC50 (SK-LMS-1) of over 10.2 µM. It also gave an IC50 (U-266) of over 10.2 µM, an IC50 (JAR) of over 10.2 µM and an IC50 (IM-9) of over 10.2 µM. It also gave an IC50 (BV-173) of over 10.2 µM, an IC50 (RS4-11) of 5.79 µM and an IC50 (MEG-01) of over 10.2 µM. The IC50 (NCI-H1395) was over 10.2 µM, the IC50 (ES4) was 6.56 µM and the IC50 (MOLT-16) was 4.75 µM. For the same compound, the IC50 (GB-1) was 9.12 µM, the IC50 (LU-165) was over 10.2 µM and the IC50 (LB831-BLC) was 6.16 µM. It also gave an IC50 (HH) of over 10.2 µM, an IC50 (KY821) of over 10.2 µM and an IC50 (NB13) of over 10.2 µM. The IC50 (P30-OHK) was over 10.2 µM, the IC50 (L-363) was 4.94 µM and the IC50 (IST-SL1) was over 10.2 µM. For the same compound, the IC50 (DJM-1) was over 10.2 µM, the IC50 (RXF 393) was over 10.2 µM and the IC50 (ALL-PO) was over 10.2 µM. The IC50 (CW-2) was over 10.2 µM, the IC50 (MV4-11) was 5.88 µM and the IC50 (ACN) was over 10.2 µM. The IC50 (EW-18) was over 10.2 µM, the IC50 (NCI-H720) was over 10.2 µM and the IC50 (MFH-ino) was 3.59 µM. The IC50 (HL-60) was over 10.2 µM, the IC50 (EM-2) was over 10.2 µM and the IC50 (LU-134-A) was over 10.2 µM. It also gave an IC50 (DEL) of over 10.2 µM, an IC50 (NCI-H2126) of over 10.2 µM and an IC50 (VA-ES-BJ) of over 10.2 µM. The IC50 (BB49-HNC) was over 10.2 µM, the IC50 (COLO-320-HSR) was over 10.2 µM and the IC50 (LS-411N) was 4.34 µM. For the same compound, the IC50 (CP66-MEL) was over 10.2 µM.
In the case of `Cc1ccc(NC(=O)c2cccc(C(C)(C)C#N)c2)cc1Nc1ccc2ncn(C)c(=O)c2c1`, the IC50 (MOLT-4) is reported as over 4 µM, the IC50 (NB69) is reported as 0.191 µM and the IC50 (LS-123) is reported as over 4 µM. For the same compound, the IC50 (GT3TKB) was over 4 µM, the IC50 (KM12) was 2.08 µM and the IC50 (GI-ME-N) was 1.29 µM. The IC50 (COLO-829) was 0.0256 µM, the IC50 (Becker) was over 4 µM and the IC50 (BB65-RCC) was over 4 µM. For the same compound, the IC50 (MZ2-MEL) was 0.794 µM, the IC50 (NKM-1) was 0.735 µM and the IC50 (A4-Fuk) was 0.484 µM. For the same compound, the IC50 (NCI-H526) was over 4 µM, the IC50 (NCI-H1299) was over 4 µM and the IC50 (LB2241-RCC) was over 4 µM. For the same compound, the IC50 (NCI-H1581) was over 4 µM, the IC50 (SK-LMS-1) was over 4 µM and the IC50 (U-266) was over 4 µM. For the same compound, the IC50 (JAR) was over 4 µM, the IC50 (IM-9) was over 4 µM and the IC50 (BV-173) was 0.692 µM. The IC50 (RS4-11) was over 4 µM, the IC50 (MEG-01) was 0.376 µM and the IC50 (NCI-H1395) was over 4 µM. It also gave an IC50 (ES4) of over 4 µM, an IC50 (MOLT-16) of over 4 µM and an IC50 (GB-1) of over 4 µM. It also gave an IC50 (LU-165) of over 4 µM, an IC50 (LB831-BLC) of over 4 µM and an IC50 (HH) of over 4 µM. For the same compound, the IC50 (KY821) was over 4 µM, the IC50 (NB13) was over 4 µM and the IC50 (P30-OHK) was over 4 µM. For the same compound, the IC50 (L-363) was over 4 µM, the IC50 (IST-SL1) was over 4 µM and the IC50 (DJM-1) was over 4 µM. It also gave an IC50 (RXF 393) of over 4 µM, an IC50 (ALL-PO) of 1.35 µM and an IC50 (CW-2) of over 4 µM. It also gave an IC50 (MV4-11) of 1.42 µM, an IC50 (ACN) of under 0.0156 µM and an IC50 (EW-18) of over 4 µM. The IC50 (NCI-H720) was over 4 µM, the IC50 (MFH-ino) was over 4 µM and the IC50 (HL-60) was 0.154 µM. It also gave an IC50 (EM-2) of 0.196 µM, an IC50 (LU-134-A) of over 4 µM and an IC50 (DEL) of over 4 µM. The IC50 (NCI-H2126) was over 4 µM, the IC50 (VA-ES-BJ) was over 4 µM and the IC50 (BB49-HNC) was 0.352 µM. The IC50 (COLO-320-HSR) was over 4 µM, the IC50 (LS-411N) was 0.0916 µM and the IC50 (CP66-MEL) was 0.132 µM.
